Assays:
[1] = molecular target: Sodium-dependent dopamine transporter (Homo sapiens, UniProt Q01959); type: cell-based, HEK293
[2] = molecular target: Sodium-dependent serotonin transporter (Homo sapiens, UniProt P31645); type: cell-based, HEK293
[3] = molecular target: Sodium-dependent noradrenaline transporter (Homo sapiens, UniProt P23975); assay: Inhibition of [3H]norepinephrine uptake at human NET expressed in HEK293 cells preincubated for 10 mins prior to substrate addition measured after 4 mins by […]; type: cell-based
Sequence of Sodium-dependent noradrenaline transporter (P23975 whole entry): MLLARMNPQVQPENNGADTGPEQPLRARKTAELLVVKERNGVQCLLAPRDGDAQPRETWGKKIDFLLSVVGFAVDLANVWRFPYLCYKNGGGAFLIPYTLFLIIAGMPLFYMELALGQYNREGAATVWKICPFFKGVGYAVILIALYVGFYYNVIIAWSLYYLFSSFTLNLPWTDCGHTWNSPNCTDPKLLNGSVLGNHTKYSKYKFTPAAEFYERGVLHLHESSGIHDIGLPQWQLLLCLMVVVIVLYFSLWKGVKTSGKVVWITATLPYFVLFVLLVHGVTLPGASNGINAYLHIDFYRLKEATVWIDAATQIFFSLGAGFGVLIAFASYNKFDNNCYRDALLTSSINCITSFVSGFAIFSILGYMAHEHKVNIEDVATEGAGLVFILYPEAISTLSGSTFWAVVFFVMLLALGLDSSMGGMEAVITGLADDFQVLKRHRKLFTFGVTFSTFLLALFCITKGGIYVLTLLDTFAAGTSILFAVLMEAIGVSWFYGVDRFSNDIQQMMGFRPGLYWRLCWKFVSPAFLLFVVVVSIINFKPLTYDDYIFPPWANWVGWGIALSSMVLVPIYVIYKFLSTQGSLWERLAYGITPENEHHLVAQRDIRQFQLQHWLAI

Sequence of Sodium-dependent dopamine transporter (Q01959 whole entry): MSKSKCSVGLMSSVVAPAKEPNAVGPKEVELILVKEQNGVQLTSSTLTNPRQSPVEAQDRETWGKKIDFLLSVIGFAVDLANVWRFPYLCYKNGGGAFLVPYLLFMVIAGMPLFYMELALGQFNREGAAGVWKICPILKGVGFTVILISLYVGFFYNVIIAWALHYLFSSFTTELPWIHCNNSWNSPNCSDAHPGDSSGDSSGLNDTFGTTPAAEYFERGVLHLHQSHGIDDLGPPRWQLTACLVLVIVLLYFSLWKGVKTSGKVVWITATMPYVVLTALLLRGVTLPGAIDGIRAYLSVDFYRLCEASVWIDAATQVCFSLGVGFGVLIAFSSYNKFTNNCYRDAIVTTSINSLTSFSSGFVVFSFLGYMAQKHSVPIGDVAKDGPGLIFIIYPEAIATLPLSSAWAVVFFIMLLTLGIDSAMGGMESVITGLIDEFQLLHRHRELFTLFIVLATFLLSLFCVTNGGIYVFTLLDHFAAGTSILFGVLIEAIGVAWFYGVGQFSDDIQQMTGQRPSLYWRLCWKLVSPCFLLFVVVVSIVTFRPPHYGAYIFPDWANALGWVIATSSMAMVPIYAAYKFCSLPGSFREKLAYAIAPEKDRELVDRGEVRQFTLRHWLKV
Sequence of Sodium-dependent serotonin transporter (P31645 whole entry): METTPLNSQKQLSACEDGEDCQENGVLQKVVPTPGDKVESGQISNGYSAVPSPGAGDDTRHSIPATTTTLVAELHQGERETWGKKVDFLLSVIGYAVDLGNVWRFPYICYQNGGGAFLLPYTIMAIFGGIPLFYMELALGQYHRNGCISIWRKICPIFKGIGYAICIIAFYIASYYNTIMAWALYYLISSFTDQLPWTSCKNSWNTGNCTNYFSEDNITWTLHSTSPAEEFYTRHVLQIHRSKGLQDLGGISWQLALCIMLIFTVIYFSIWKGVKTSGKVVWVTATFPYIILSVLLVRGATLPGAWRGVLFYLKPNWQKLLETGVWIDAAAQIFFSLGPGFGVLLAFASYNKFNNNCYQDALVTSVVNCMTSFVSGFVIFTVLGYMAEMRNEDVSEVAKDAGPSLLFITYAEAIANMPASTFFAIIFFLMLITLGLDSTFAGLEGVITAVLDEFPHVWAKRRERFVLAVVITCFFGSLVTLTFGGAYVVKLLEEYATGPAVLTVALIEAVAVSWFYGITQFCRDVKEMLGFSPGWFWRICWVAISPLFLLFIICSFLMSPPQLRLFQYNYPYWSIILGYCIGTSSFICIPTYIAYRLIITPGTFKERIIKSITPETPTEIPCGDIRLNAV

Compound	IC50 [1] [µM]	Ki [1] [µM]	IC50 [2] [µM]	Ki [2] [µM]	IC50 [3] [µM]	Ki [3] [µM]
CN(C)CCC=C1c2ccccc2CCc2ccccc21 [AMITRIPTYLINE]	12.6	6.2				
CC(N)Cc1ccc2c(c1)OCO2 (single isomer, unassigned; (-)) [TENAMFETAMINE]	6.17	2.42	6.76	2.31	3.16	0.704
CN[C@@H](C)Cc1ccc2c(c1)OCO2 (single isomer, unassigned; (+)) [MIDOMAFETAMINE]	2.4	0.897	2.75		2	

— ChEMBL document CHEMBL2390840, “An analysis of the synthetic tryptamines AMT and 5-MeO-DALT: emerging 'Novel Psychoactive Drugs'” (Bioorg Med Chem Lett, 2013)
